Measured values: patent US9403801B2 (Calitor Sciences, LLC, priority 2014, dated 2016)

Key:
[1] = Compound stability in human liver microsomes; assay type: in vitro ADME; settings: for half-life at 5 μM / T1/2: compound 5 μM, NADPH 1.0 mM, 37° C.
How it was run: (§1)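 Compounds (5 μM, 0.05% DMSO) were incubated at 37° C with liver microsomes (0.5 mg protein/mL) and NADPH (1.0 mM) in 100 mM potassium phosphate, pH 7.4. Samples taken at 0–60 min were quenched with cold acetonitrile and analysed by LC/MS/MS. Remaining compound was expressed as % of the zero-time value, and CLint was extrapolated.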

[2] = Compound stability in rat liver microsomes; assay type: in vitro ADME
How it was run: as §1

[3] = Pharmacokinetics after intravenous and oral administration in rats; assay type: in vivo; settings: for Clearance (CL) after iv dosing / AUC(0-t) / half-life / Vd: dose 1 mg/kg (Ex. 27: 0.72 mg/kg), iv dosing; for F: oral bioavailability; for AUC(0-t) / half-life / Vd: rat, plasma; for Vd: read-out: Vss
How it was run: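 Rats were dosed 1 or 2 mg/kg IV or 5 or 10 mg/kg orally, as water solution, HPMC/Tween 80, DMSO/saline, MC suspension or capsule. Plasma was sampled from 0.083 or 0.25 h up to 24 h and quantified by LC/MS/MS in MRM mode with ESI.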

JAK1 (h) = JAK1 (h) (Homo sapiens (Human), UniProt P23458); experiment: JAK1 kinase assay (33P-ATP filter binding, Millipore); assay type: biochemical
JAK1 (h), sequence (P23458 whole entry): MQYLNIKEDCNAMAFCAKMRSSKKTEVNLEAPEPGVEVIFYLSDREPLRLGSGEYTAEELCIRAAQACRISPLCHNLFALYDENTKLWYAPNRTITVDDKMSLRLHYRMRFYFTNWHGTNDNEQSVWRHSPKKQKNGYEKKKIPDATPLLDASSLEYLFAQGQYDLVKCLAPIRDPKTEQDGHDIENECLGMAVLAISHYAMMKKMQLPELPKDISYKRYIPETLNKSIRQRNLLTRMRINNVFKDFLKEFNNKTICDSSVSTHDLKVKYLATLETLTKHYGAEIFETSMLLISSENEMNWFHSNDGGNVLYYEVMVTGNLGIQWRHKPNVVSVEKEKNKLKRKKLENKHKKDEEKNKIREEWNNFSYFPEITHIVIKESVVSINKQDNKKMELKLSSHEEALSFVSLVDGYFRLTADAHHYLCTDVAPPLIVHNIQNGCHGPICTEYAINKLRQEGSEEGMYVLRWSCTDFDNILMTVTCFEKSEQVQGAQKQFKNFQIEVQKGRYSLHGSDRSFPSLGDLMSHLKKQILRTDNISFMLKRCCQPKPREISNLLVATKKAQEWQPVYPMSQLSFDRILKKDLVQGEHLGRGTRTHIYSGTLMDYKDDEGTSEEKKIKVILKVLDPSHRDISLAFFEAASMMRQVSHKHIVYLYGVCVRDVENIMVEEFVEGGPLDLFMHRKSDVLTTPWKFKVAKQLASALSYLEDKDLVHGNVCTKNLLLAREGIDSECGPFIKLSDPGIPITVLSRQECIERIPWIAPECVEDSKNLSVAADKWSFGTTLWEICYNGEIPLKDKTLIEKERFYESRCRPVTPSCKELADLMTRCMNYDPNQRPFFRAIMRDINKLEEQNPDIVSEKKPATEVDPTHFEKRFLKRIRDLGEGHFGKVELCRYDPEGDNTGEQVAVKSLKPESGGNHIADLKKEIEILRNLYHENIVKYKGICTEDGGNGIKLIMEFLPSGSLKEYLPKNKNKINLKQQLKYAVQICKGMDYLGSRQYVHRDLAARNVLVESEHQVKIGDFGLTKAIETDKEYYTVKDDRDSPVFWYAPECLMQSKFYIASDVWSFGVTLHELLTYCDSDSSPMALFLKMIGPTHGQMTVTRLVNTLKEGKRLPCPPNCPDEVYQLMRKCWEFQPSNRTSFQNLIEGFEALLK
How it was run: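 Radiometric assay of γ-33P-ATP incorporation into plate-immobilised MBP; kinase buffer pH 7.6 with 10 mM MgCl2, 10 μM unlabelled ATP typical, enzyme 10 or 20 nM final, 1% DMSO. Reactions ran 1 h at room temperature before scintillation counting. IC50 from 10-point half-log dilution curve, duplicates.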

JAK2 (h) = JAK2 (h) (Homo sapiens (Human), UniProt O60674); experiment: JAK2 kinase assay (33P-ATP filter binding, Millipore); assay type: biochemical
JAK2 (h), sequence (O60674 whole entry): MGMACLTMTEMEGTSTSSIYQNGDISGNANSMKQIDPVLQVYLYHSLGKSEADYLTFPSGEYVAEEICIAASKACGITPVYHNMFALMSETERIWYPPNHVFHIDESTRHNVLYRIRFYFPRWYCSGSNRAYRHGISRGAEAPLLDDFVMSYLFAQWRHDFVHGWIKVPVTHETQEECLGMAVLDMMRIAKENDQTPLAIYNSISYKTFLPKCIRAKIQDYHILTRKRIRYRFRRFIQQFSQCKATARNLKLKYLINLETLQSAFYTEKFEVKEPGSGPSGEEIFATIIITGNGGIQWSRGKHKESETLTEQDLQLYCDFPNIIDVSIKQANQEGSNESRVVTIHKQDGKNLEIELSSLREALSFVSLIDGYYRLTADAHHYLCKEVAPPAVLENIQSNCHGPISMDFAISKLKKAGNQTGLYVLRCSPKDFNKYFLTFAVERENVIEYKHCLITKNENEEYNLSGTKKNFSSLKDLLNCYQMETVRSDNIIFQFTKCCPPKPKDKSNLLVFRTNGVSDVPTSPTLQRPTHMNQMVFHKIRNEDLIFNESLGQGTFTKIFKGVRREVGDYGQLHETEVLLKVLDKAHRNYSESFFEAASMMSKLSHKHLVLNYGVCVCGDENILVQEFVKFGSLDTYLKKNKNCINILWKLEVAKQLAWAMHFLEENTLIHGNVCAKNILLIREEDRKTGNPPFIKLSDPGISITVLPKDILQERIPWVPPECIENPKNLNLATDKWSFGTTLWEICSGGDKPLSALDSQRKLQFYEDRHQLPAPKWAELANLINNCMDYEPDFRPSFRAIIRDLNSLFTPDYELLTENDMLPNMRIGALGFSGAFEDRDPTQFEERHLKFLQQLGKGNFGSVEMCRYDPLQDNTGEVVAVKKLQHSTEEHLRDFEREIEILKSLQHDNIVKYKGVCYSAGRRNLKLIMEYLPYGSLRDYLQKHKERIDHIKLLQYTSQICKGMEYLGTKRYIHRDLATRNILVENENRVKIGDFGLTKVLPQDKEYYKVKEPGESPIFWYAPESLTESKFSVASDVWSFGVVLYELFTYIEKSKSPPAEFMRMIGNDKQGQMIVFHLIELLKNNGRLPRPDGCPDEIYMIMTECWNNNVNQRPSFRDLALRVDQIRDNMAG
Method: Kinase assays can be performed by measurement of incorporation of γ-^33P ATP into immobilized myelin basic protein (MBP). High binding white 384 well plates (Greiner) are coated with MBP (Sigma #M−1891) by incubation of 60 μL/well of 20 μg/mL MBP in Tris-buffered saline (TBS; 50 mM Tris pH 8.0, 138 mM NaCl, 2.7 mM KCl) for 24 h at 4° C. Plates are washed 3× with 100 μL TBS. Kinase reactions are carried out in a total volume of 34 μL in kinase buffer (5 mM Hepes pH 7.6, 15 mM NaCl, 0.01% bovine gamma globulin (Sigma #I-5506), 10 mM MgCl2, 1 mM DTT, 0.02% TritonX-100). Compound dilutions are performed in DMSO and added to assay wells to a final DMSO concentration of 1%. Each data point is measured in duplicate, and at least two duplicate assays are performed for each individual compound determination. Enzyme is added to final concentrations of 10 nM or 20 nM, for example. A mixture of unlabeled ATP and γ-^33P ATP is added to start the reaction (2×10^6 cpm of γ-^33P ATP per well (3000 Ci/mmole) and 10 μM unlabeled ATP, typically. The reactions are carried out for 1 h at room temperature with shaking. Plates are washed 7× with TBS, followed by the addition of 50 μL/well scintillation fluid (Wallac). Plates are read using a Wallac Trilux counter. This is only one format of such assays; various other formats are possible, as known to one skilled in the art.
The above assay procedure can be used to determine the IC50 for inhibition and/or the inhibition constant, Ki. The IC50 is defined as the concentration of compound required to reduce the enzyme activity by 50% under the condition of the assay. The IC50 value is estimated by preparing a 10 point curve using a 1/2 log dilution series (for example, a typical curve may be prepared using the following compound concentrations: 3 μM, 1 μM, 0.3 μM, 0.1 μM, 0.03 μM, 0.01 μM, 0.003 μM, 0.001 μM, 0.0003 μM and 0 μM).
The kinase assays described herein were performed at Millipore UK Ltd, Dundee Technology Park, Dundee DD2 1SW, UK.

[4] = human, liver microsomes, pH 7.4, Human liver microsomes 0.5 mg protein/mL
[5] = human, liver microsomes, pH 7.4, Human liver microsomes, in vivo CLint extrapolated
[6] = rat, liver microsomes, pH 7.4, Rat liver microsomes 0.5 mg protein/mL, compound 5 μM, NADPH 1.0 mM, 37° C.
[7] = rat, liver microsomes, pH 7.4, Rat liver microsomes, in vivo CLint extrapolated
[8] = pH 7.4, Human liver microsomes 0.5 mg protein/mL
[9] = pH 7.4, Human liver microsomes, in vivo CLint extrapolated
[10] = pH 7.4, Rat liver microsomes 0.5 mg protein/mL, compound 5 μM, NADPH 1.0 mM, 37° C.
[11] = pH 7.4, Rat liver microsomes, in vivo CLint extrapolated
[12] = Human liver microsomes 0.5 mg protein/mL

half-life at 5 μM [1, 8]	CLint scaled at 5 μM [1, 9]	half-life at 5 μM [2, 10]	CLint scaled at 5 μM [2, 11]	Structure (SMILES)	half-life at 5 μM [1, 4]	CLint scaled at 5 μM [1, 5]	half-life at 5 μM [2, 6]	CLint scaled at 5 μM [2, 7]	Clearance (CL) after iv dosing [3]	F [3]	AUC(0-t) [3]	half-life [3]	Vd [3]	IC50 (JAK1 (h))	IC50 (JAK2 (h))	T1/2 [1, 12]	CLint ([1]; Human liver microsomes, in vivo CLint extrapolated)	T1/2 ([2]; Rat liver microsomes 0.5 mg protein/mL, compound 5 μM, NADPH 1.0 mM, 37° C.)	CLint ([2]; Rat liver microsomes, in vivo CLint extrapolated)
–	–	–	–	Cn1cc(Nc2ncc(Cl)c(NC3CCC4(CC3)CCN(C(=O)C(F)(F)F)CC4)n2)cn1 [Ex. 30, 1-(9-((5-chloro-2-((1-methyl-1H-pyrazol-4-yl)amino)pyrimidin-4-yl)amino)-3-azaspiro[5.5]undecan-3-yl)-2,2,2-trifluoroethanone]	38 min	45.7 mL/min/kg	24.2 min	103 mL/min/kg	45.7 mL/min/kg	26.1%	370 ng·h/mL	69 min	4.77 L/kg	0.9 nM	5 nM	–	–	–	–
202 min	8.6 mL/min/kg	27.2 min	91.4 mL/min/kg	CC(=O)N1CC2CC(Nc3nc(Nc4cnn(C)c4)ncc3Cl)CC2C1 (centres unmarked) [Ex. 32, 1-(5-((5-chloro-2-((1-methyl-1H-pyrazol-4-yl)amino)pyrimidin-4-yl)amino)hexahydrocyclopenta[c]pyrrol-2(1H)-yl)ethanone]	–	–	–	–	62.8 mL/min/kg	41.3%	264 ng·h/mL	35.4 min	1.65 L/kg	3 nM	37 nM	–	–	–	–
127 min	13.7 mL/min/kg	36.9 min	67.3 mL/min/kg	Cc1cc(Nc2ncc(Cl)c(NC3CC4CN(C(=O)CC#N)CC4C3)n2)nn1C (centres unmarked) [Ex. 39, 3-(5-((5-chloro-2-((1,5-dimethyl-1H-pyrazol-3-yl)amino)pyrimidin-4-yl)amino)hexahydrocyclopenta[c]pyrrol-2(1H)-yl)-3-oxopropanenitrile]	–	–	–	–	39.8 mL/min/kg	83.1%	422 ng·h/mL	41.4 min	1.19 L/kg	5 nM	30 nM	–	–	–	–
–	–	–	–	Cn1cc(Nc2ncc(Cl)c(NC3CCC4(CC3)CCN(C(=O)CC#N)C4)n2)cn1 (single isomer, unassigned) [Ex. 14B, 3-(8-((5-chloro-2-((1-methyl-1H-pyrazol-4-yl)amino)pyrimidin-4-yl)amino)-2-azaspiro[4.5]decan-2-yl)-3-oxopropanenitrile]	–	–	–	–	86.8 mL/min/kg	12.7%	193 ng·h/mL	29.4 min	2.41 L/kg	2 nM	15 nM	171.8 min	10.12 mL/min/kg	71.63 min	34.67 mL/min/kg
–	–	–	–	Cc1cnc(Nc2cnn(C)c2)nc1NC1CCC2(CC1)CCN(C(=O)CC#N)CC2 [Ex. 25, 3-(9-((5-methyl-2-((1-methyl-1H-pyrazol-4-yl)amino)pyrimidin-4-yl)amino)-3-azaspiro[5.5]undecan-3-yl)-3-oxopropanenitrile]	522 min	3.33 mL/min/kg	16.8 min	148 mL/min/kg	–	–	–	–	–	6 nM	86 nM	–	–	–	–
158 min	11 mL/min/kg	12.2 min	204 mL/min/kg	Cn1cc(Nc2ncc(Cl)c(NC3CCC4CN(C(=O)CC#N)CC4C3)n2)cn1 (centres unmarked) [Ex. 22, 3-(5-((5-chloro-2-((1-methyl-1H-pyrazol-4-yl)amino)pyrimidin-4-yl)amino)hexahydro-1H-isoindol-2(3H)-yl)-3-oxopropanenitrile]	–	–	–	–	94.8 mL/min/kg	22.6%	176 ng·h/mL	25.8 min	2.02 L/kg	2 nM	6 nM	–	–	–	–
–	–	–	–	Cn1cc(Nc2ncc(Cl)c(NC3CCC4(CC3)CCN(S(C)(=O)=O)CC4)n2)cn1 [Ex. 29, 5-chloro-N^2-(1-methyl-1H-pyrazol-4-yl)-N^4-(3-(methylsulfonyl)-3-azaspiro[5.5]undecan-9-yl)pyrimidine-2,4-diamine]	83.8 min	20.8 mL/min/kg	40.3 min	61.6 mL/min/kg	45.7 mL/min/kg	19.1%	382 ng·h/mL	49.2 min	2.05 L/kg	2 nM	5 nM	–	–	–	–
–	–	–	–	Cc1cnc(Nc2cnn(C)c2)nc1NC1CCC2(CC1)CCN(C(=O)CC#N)C2 (centres unmarked) [Ex. 10, 3-(8-((5-methyl-2-((1-methyl-1H-pyrazol-4-yl)amino)pyrimidin-4-yl)amino)-2-azaspiro[4.5]decan-2-yl)-3-oxopropanenitrile]	1510 min	1.15 mL/min/kg	52.6 min	47.2 mL/min/kg	–	–	–	–	–	7 nM	129 nM	–	–	–	–
19 min	91.6 mL/min/kg	2.31 min	1080 mL/min/kg	Cn1cc(Nc2ncc(Cl)c(NC3CC4CN(C(=O)C(F)(F)F)CC4C3)n2)cn1 (centres unmarked) [Ex. 34, 1-(5-((5-chloro-2-((1-methyl-1H-pyrazol-4-yl)amino)pyrimidin-4-yl)amino)hexahydrocyclopenta[c]pyrrol-2(1H)-yl)-2,2,2-trifluoroethanone]	–	–	–	–	–	–	–	–	–	2 nM	17 nM	–	–	–	–
–	–	–	–	Cc1cc(Nc2ncc(Cl)c(NC3CCC4(CC3)CCN(C(=O)CC#N)CC4)n2)nn1C [Ex. 37, 3-(9-((5-chloro-2-((1,5-dimethyl-1H-pyrazol-3-yl)amino)pyrimidin-4-yl)amino)-3-azaspiro[5.5]undecan-3-yl)-3-oxopropanenitrile]	56.2 min	30.9 mL/min/kg	68.9 min	36.1 mL/min/kg	44.3 mL/min/kg	31.3%	381 ng·h/mL	71.4 min	2.97 L/kg	5 nM	11 nM	–	–	–	–
–	–	–	–	CN(c1nc(Nc2cnn(C)c2)ncc1Cl)C1CCC2(CC1)CCN(C(=O)CC#N)C2 (single isomer, unassigned) [Ex. 4A, 3-(8-((5-chloro-2-((1-methyl-1H-pyrazol-4-yl)amino)pyrimidin-4-yl)(methyl)amino)-2-azaspiro[4.5]decan-2-yl)-3-oxopropanenitrile]	37.3 min	46.6 mL/min/kg	12.4 min	200 mL/min/kg	48.8 mL/min/kg	21.81%	345 ng·h/mL	51.6 min	1.38 L/kg	20 nM	83 nM	–	–	–	–

Structure (SMILES)	half-life at 5 μM [1, 8]	CLint scaled at 5 μM [1, 9]	half-life at 5 μM [2, 10]	CLint scaled at 5 μM [2, 11]	half-life at 5 μM [1, 4]	CLint scaled at 5 μM [1, 5]	half-life at 5 μM [2, 6]	CLint scaled at 5 μM [2, 7]	Clearance (CL) after iv dosing [3]	F [3]	AUC(0-t) [3]	half-life [3]	Vd [3]	IC50 (JAK1 (h))	IC50 (JAK2 (h))	T1/2 [1, 12]	CLint ([1]; Human liver microsomes, in vivo CLint extrapolated)	T1/2 ([2]; Rat liver microsomes 0.5 mg protein/mL, compound 5 μM, NADPH 1.0 mM, 37° C.)	CLint ([2]; Rat liver microsomes, in vivo CLint extrapolated)
Cn1cc(Nc2ncc(Cl)c(NC3CC4CNCC4C3)n2)cn1 (centres unmarked) [Ex. 11, 5-chloro-N^2-(1-methyl-1H-pyrazol-4-yl)-N^4-(octahydrocyclopenta[c]pyrrol-5-yl)pyrimidine-2,4-diamine]	–	–	17.7 min	140 mL/min/kg	–	–	–	–	105 mL/min/kg	18.13%	146 ng·h/mL	151 min	18.6 L/kg	27 nM	176 nM	∞	–	–	–
